Source: patent US8247211B2, “Glycopeptide antibiotics” (American Cyanamid Company, priority 2001, dated 2012)

What was measured:
Streptococcus sp. = assay: In vitro antibacterial evaluation: minimum inhibitory concentration (MIC), broth dilution method; type: cell-based; conditions: broth dilution, 18 hours at 35° C.
Summary of the method: (§1)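 NCCLS M7-A2 broth dilution; Muller-Hinton II […]; 5×10^5 CFU/mL; 64-0.06 μg/mL. MIC = lowest concentration with no growth.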

Enterococcus sp. = assay: as above; type: cell-based; conditions: broth dilution, 18 hours at 35° C.
Summary of the method: as §1

Staphylococcus sp. = assay: as above; type: cell-based; conditions: strain SMITH GC 4543; broth dilution, 18 hours at 35° C.
Summary of the method: as §1

[1] = test system: Staphylococcus aureus-SMITH (GC 4543); assay: Acute lethal infection in mice (ED50); type: in vivo; conditions: female CD-1 mice, intraperitoneal challenge, intravenous dose 30 min. after infection, 7 day survival ratios
Summary of the method: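 IP bacterial challenge, female CD-1 mice; inoculum lethal to untreated controls in 24-48 hr. IV dosing in saline or 5% dextrose 30 min post-infection, 5 mice/dose. ED50 from 7-day survival, 3 tests pooled.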

[2] = Anatomic pathology (heart and kidney histopathology) in mice; type: in vivo, CD-1 mice; conditions: 20 mg/kg intravenously daily for 9 days, microscopic histopathology on day 10
Summary of the method: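 Histopathology on H&E-stained, paraffin-embedded sections, subjectively scored (slight, mild, moderate, marked, severe) relative to untreated controls. Dosing: glycopeptide antibiotics 20 mg/kg intravenously once daily ×9 days in 20-day-old CD-1 mice, n=5 per group including vehicle.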

Escherichia coli = assay: In vitro antibacterial evaluation: minimum inhibitory concentration (MIC), broth dilution method; type: cell-based; conditions: broth dilution, 18 hours at 35° C.

Cc1ccc(Oc2cccc(-c3nc4cc(CC5NC(=O)C(C(C)c6ccccc6)NC(=O)CNC(=O)C(CO)NC(=O)C(C(O)C6CNC(=N)N6C6OC(CO)C(O)C(O)C6O)NC(=O)C(C(O)C6CNC(=N)N6)NC5=O)ccc4o3)c2)cc1 (centres unmarked) [Example 28]
64 µg/mL: MIC Escherichia coli (ATCC 25922) (Escherichia coli) | MIC Escherichia coli (GC 4559) (Escherichia coli)
1 µg/mL: MIC Streptococcus pyogenes (GC 4563) (Streptococcus sp.; Streptococcus pyogenes (GC 4563)) | MIC Streptococcus pyogenes (GC 4563) (Streptococcus sp.)
8 mg/kg: median effective dose (ED50), Staphylococcus aureus-SMITH (GC 4543) [1]
4 µg/mL: MIC Streptococcus agalactiae (GC 4564) (Streptococcus sp.; Streptococcus agalactiae (GC 4564)) | MIC Streptococcus pneumoniae (ATCC 6301) (Streptococcus sp.; Streptococcus pneumoniae (ATCC 6301)) | MIC Streptococcus pneumoniae (GC 1894) (Streptococcus sp.; Streptococcus pneumoniae (GC 1894)) | MIC Streptococcus pneumoniae (GC 4565) (Streptococcus sp.; Streptococcus pneumoniae (GC 4565)) | MIC Streptococcus agalactiae (GC 4564) (Streptococcus sp.) | MIC Streptococcus pneumoniae (ATCC 6301) (Streptococcus sp.) | MIC Streptococcus pneumoniae (GC 1894) (Streptococcus sp.) | MIC Streptococcus pneumoniae (GC 4565) (Streptococcus sp.) | MIC Enterococcus avium (GC 4558) (Enterococcus sp.; Enterococcus avium (GC 4558)) | MIC Enterococcus faecalis (GC 2242) (Enterococcus sp.; Enterococcus faecalis (GC 2242)) | MIC Enterococcus faecalis (GC 4553) (Enterococcus sp.; Enterococcus faecalis (GC 4553)) | MIC Enterococcus faecium (GC 4557) (Enterococcus sp.; Enterococcus faecium (GC 4557)) | MIC Enterococcus avium (GC 4558) (Enterococcus sp.) | MIC Enterococcus faecalis (GC 2242) (Enterococcus sp.) | MIC Enterococcus faecalis (GC 4553) (Enterococcus sp.) | MIC Enterococcus faecium (GC 4557) (Enterococcus sp.) | MIC Staphylococcus aureus-SMITH (GC 4543) (Staphylococcus sp.)
0: Anatomical Pathology (Day 10), Heart [2] | Anatomical Pathology (Day 10), Kidney [2]
8 µg/mL: MIC Enterococcus faecalis (ATCC 29212) (Enterococcus sp.; Enterococcus faecalis (ATCC 29212)) | MIC Enterococcus faecalis (GC 2691) (Enterococcus sp.; Enterococcus faecalis (GC 2691)) | MIC Enterococcus faecalis (GC 3059) (Enterococcus sp.; Enterococcus faecalis (GC 3059)) | MIC Enterococcus faecalis (GC 4552) (Enterococcus sp.; Enterococcus faecalis (GC 4552)) | MIC Enterococcus faecalis (GC 4554) (Enterococcus sp.; Enterococcus faecalis (GC 4554)) | MIC Enterococcus faecalis (GC 6189) (Enterococcus sp.; Enterococcus faecalis (GC 6189)) | MIC Enterococcus faecium (GC 2243) (Enterococcus sp.; Enterococcus faecium (GC 2243)) | MIC Enterococcus faecium (GC 4556) (Enterococcus sp.; Enterococcus faecium (GC 4556)) | MIC Enterococcus faecalis (ATCC 29212) (Enterococcus sp.) | MIC Enterococcus faecalis (GC 2691) (Enterococcus sp.) | MIC Enterococcus faecalis (GC 3059) (Enterococcus sp.) | MIC Enterococcus faecalis (GC 4552) (Enterococcus sp.) | MIC Enterococcus faecalis (GC 4554) (Enterococcus sp.) | MIC Enterococcus faecalis (GC 6189) (Enterococcus sp.) | MIC Enterococcus faecium (GC 2243) (Enterococcus sp.) | MIC Enterococcus faecium (GC 4556) (Enterococcus sp.) | MIC Escherichia coli (GC 4560) (Escherichia coli)
